Laboratory results published in BindingDB's records for doi:10.1021/jm051030l (University of Pittsburgh, 2006).
Where a name gives a salt, the structure may show the parent alone.

target: Cytoplasmic dynein 1 heavy chain 1 (Rattus norvegicus, UniProt P38650); test: Inhibition of MT-stimulated ATPase activity of rat cytoplasmic dynein heavy chain motor domain
Sequence (P38650 whole entry, the tested form may be a part): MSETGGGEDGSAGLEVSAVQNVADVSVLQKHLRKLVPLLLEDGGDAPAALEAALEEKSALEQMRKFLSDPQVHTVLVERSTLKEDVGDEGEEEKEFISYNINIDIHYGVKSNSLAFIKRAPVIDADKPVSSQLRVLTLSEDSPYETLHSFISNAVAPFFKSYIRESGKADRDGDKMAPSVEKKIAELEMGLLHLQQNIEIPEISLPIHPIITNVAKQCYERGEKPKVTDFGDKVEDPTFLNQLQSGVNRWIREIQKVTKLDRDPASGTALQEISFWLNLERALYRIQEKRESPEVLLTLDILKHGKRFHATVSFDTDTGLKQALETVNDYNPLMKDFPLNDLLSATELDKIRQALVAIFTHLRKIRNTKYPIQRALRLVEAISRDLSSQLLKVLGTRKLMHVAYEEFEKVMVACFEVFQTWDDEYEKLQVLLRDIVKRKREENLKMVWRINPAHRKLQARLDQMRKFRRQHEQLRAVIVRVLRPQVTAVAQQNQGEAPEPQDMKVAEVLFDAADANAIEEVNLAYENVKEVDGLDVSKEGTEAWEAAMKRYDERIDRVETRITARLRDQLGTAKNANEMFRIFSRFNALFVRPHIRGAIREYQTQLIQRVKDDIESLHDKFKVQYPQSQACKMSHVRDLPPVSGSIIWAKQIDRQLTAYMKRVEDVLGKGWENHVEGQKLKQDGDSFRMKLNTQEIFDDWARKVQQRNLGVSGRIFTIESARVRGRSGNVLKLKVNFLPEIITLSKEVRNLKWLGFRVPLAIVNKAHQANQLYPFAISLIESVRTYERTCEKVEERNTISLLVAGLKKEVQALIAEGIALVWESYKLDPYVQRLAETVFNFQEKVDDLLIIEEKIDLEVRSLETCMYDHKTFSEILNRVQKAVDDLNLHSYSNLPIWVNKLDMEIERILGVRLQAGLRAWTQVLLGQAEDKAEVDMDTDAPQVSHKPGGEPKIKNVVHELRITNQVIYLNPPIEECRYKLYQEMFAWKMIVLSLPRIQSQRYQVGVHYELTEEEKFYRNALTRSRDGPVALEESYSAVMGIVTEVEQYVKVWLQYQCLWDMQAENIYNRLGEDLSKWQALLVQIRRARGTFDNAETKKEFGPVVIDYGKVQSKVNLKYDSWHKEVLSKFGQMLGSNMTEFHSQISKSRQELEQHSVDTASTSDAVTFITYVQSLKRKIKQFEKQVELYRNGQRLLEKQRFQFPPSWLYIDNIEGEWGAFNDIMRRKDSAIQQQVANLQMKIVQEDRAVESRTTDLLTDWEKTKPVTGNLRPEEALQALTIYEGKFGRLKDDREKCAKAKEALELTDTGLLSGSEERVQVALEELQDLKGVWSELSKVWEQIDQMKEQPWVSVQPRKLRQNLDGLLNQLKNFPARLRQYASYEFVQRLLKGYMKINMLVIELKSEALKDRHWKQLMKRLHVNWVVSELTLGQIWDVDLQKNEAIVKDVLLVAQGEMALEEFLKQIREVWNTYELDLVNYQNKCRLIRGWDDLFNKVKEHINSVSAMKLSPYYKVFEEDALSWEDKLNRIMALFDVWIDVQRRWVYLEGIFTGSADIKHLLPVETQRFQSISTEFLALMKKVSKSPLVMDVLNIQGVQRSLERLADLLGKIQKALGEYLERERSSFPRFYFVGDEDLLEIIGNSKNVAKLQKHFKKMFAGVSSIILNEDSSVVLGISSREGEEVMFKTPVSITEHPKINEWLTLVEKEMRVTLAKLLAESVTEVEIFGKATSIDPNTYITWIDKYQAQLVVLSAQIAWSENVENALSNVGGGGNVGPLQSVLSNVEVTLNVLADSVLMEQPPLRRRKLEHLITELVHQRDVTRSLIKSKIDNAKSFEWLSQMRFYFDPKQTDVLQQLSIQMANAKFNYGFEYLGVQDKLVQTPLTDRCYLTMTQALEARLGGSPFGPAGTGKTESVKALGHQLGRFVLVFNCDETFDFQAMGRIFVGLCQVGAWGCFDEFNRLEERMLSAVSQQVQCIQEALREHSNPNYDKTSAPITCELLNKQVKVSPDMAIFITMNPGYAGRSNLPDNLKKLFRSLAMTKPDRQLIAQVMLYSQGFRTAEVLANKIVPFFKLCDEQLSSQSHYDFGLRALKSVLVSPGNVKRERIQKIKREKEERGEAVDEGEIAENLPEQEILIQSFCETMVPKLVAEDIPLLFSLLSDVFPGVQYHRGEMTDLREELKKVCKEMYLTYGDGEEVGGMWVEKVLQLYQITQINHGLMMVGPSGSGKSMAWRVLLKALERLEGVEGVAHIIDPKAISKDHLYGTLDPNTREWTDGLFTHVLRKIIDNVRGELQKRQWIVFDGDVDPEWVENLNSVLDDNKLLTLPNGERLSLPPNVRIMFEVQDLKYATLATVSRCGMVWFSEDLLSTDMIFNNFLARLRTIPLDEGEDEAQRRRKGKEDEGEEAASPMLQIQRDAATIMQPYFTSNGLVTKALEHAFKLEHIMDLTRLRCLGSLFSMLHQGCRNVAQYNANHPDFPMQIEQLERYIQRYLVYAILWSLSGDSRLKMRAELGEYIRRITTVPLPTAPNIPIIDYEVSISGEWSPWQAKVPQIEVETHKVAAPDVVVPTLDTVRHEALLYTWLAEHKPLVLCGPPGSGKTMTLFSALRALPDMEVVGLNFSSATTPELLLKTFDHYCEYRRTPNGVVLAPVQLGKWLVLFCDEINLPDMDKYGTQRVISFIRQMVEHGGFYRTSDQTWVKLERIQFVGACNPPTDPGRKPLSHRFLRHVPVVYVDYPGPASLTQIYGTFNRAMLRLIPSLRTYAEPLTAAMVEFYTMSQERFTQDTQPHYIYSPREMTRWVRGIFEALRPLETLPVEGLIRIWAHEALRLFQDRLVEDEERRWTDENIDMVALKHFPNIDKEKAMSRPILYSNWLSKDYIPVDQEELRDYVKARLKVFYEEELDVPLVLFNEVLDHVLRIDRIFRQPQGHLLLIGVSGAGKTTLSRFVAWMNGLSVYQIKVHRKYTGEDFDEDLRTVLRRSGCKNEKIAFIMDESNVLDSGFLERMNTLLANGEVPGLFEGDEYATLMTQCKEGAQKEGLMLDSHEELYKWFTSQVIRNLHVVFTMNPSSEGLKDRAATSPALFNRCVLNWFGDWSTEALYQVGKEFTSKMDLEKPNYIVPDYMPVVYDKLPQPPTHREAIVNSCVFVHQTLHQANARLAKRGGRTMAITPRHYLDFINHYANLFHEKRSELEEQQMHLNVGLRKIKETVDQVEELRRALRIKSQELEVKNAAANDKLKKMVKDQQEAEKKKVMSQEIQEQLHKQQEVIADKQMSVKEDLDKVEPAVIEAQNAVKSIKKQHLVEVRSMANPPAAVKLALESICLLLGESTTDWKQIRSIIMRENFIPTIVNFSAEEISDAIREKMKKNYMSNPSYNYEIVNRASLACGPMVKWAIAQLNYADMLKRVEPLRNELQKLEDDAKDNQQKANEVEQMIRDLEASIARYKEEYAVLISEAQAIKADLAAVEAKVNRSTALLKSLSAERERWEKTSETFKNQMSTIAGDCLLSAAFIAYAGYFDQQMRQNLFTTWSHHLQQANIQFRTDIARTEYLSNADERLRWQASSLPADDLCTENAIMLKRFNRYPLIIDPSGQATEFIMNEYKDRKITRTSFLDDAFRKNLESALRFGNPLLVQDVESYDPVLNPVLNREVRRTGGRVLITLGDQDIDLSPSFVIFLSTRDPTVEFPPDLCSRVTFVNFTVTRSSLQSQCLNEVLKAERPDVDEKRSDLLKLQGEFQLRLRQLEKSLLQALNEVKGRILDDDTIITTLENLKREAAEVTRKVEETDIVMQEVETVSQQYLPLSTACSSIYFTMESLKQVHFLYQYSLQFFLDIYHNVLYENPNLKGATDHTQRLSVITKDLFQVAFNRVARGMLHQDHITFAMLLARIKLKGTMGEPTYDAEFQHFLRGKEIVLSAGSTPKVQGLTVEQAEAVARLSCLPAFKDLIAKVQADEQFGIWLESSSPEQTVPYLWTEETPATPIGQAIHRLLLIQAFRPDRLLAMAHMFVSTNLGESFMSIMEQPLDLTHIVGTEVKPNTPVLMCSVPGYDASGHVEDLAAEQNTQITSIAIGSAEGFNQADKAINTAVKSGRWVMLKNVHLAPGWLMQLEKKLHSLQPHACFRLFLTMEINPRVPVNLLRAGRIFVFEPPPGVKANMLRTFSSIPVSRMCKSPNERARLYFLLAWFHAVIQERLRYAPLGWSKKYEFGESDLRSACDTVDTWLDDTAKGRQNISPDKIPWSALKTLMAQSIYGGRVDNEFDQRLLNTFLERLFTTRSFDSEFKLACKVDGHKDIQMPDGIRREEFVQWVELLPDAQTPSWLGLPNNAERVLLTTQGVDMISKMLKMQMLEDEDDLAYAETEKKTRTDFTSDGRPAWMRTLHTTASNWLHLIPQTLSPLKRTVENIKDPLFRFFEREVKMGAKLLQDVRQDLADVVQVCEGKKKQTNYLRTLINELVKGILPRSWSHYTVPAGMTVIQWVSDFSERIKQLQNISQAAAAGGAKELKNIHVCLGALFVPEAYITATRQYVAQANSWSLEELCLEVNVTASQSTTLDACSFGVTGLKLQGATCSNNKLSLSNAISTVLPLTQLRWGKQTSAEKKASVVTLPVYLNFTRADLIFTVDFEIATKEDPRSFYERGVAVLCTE

IC50, > 50 µM:
NCCCOc1c(Br)cc(Br)cc1CC(N=O)C(=O)NCCc1c[nH]c2ccccc12 (stereo unspecified) [3-[2-(3-aminopropoxy)-3,5-dibromophenyl]-2-hydroxyimino-N-[2-(1H-indol-3-yl)ethyl]propanamide hydrochloride]
NCCCOc1c(Br)cc(Br)cc1CC(N=O)C(=O)NCCc1ccc(Cl)cc1 (stereo unspecified) [3-[2-(3-aminopropoxy)-3,5-dibromophenyl]-N-[2-(4-chlorophenyl)ethyl]-2-hydroxyiminopropanamide hydrochloride]
NCCCOc1c(Cl)cc(Cl)cc1CC(N=O)C(=O)NCCc1c[nH]c2ccccc12 (stereo unspecified) [3-[2-(3-aminopropoxy)-3,5-dichlorophenyl]-2-hydroxyimino-N-[2-(1H-indol-3-yl)ethyl]propanamide hydrochloride]
NCCCOc1ccc(CC(N=O)C(=O)NCCc2c[nH]c3ccccc23)cc1Br (stereo unspecified) [3-[4-(3-aminopropoxy)-3-bromophenyl]-2-hydroxyimino-N-[2-(1H-indol-3-yl)ethyl]propanamide hydrochloride]
NCCCOc1ccc(CC(N=O)C(=O)NCCc2ccc(Cl)cc2)cc1Br (stereo unspecified) [3-[4-(3-aminopropoxy)-3-bromophenyl]-N-[2-(4-chlorophenyl)ethyl]-2-hydroxyiminopropanamide hydrochloride]
CCCCCCCCCCCCCC(=O)NCCCOc1c(Br)cc(CC(N=O)C(=O)NCCc2cnc(N)[nH]2)cc1Br (stereo unspecified) [Lipopurealin A]
